According to US20130261045A1, “GREEN TEA POLYPHENOL ALPHA SECRETASE ENHANCERS AND METHODS OF USE” (UNIVERSITY OF SOUTH FLORIDA, priority 2005, published 2013):

What was measured:
[1] = test system: ADAM9; assay: Western blot of ADAM9 in SweAPP N2a cells; type: cell-based, murine; conditions: EGCG treatment; data not shown
Experimental: (§1) Cultured cells were lysed in ice-cold lysis buffer described above, and an aliquot corresponding to 50 μg of total protein was electrophoretically separated using 16.5% Tris-tricine gels. Electrophoresed proteins were then transferred to PVDF membranes (Bio-Rad, Richmond, Calif.), washed in ddH2O, and blocked for 1 h at ambient temperature in Tris-buffered saline (TBS; Bio-Rad) containing 5% (w/v) non-fat dry milk. After blocking, membranes were hybridized for 1 h at ambient temperature with various primary antibodies. Membranes were then washed 3 times for 5 min each in ddH2O and incubated for 1 h at ambient temperature with the appropriate HRP-conjugated secondary antibody (1:1,000, Pierce Biotechnology, Inc. Rockford, Ill.). All antibodies were diluted in TBS containing 5% (w/v) of non-fat dry milk. Blots were developed using the luminol reagent (Pierce Biotechnology). Densitometric analysis was done using the Fluor-S MultiImager™ with Quantity One™ software (Bio-Rad). For examining sAPP-α, conditioned medium was collected following treatment according to a modified protocol from Chen and Fernandez (Chen et al., 2004). sAPP-α was extracted using 3K Nanosep centrifugal filters (Pall Life Sciences, Ann Arbor, Mich.) and protein concentrate was prepared for the aforementioned electrophoresis. […]

[2] = test system: ADAM17; assay: Western blot of ADAM17 in SweAPP N2a cells; type: cell-based, murine; conditions: EGCG treatment; data not shown
Experimental: as §1

[3] = test system: transgenic APPsw mice; assay: EGCG ICV injection of transgenic APPsw mice (cerebral Aβ, α-secretase activity); type: in vivo; conditions: ICV 10 μg/mouse once; 24 hours
Experimental: Cultured cells were lysed in ice-cold-lysis buffer (20 mM Tris, pH 7.5, 150 mM NaCl, 1 mM EDTA, 1 mM EGTA, 1% v/v Triton X-100, 2.5 mM sodium pyropgosphate, 1 mM β-glycerolphosphate, 1 mM Na3VO4, 1 μg/mL leupeptin, 1 mM PMSF) as previously described (Tan et al., 2002). Mouse brains were isolated under sterile conditions on ice and placed in ice-cold lysis buffer. Brains were then sonicated on ice for approximately 3 min, allowed to stand for 15 min at 4° C., and centrifuged at 15,000 rpm for 15 min. Total Aβ1-42 species were detected by acid extraction of brain homogenates in 5 M guanidine buffer (ret), followed by a 1:10 dilution in lysis buffer. Soluble Aβ1-42 was directly detected in cultured cell lysates or brain homogenates prepared with lysis buffer described above by a 1:4 or 1:10 dilution, respectively. Aβ1-42 was quantified in these samples using the Aβ1-42 ELISA kit (BioSource, Camarillo, Calif.) in accordance with the manufacturer's instructions, except that standards included a 0.5 M guanidine buffer.
Cultured cells and mouse brain were lysed in ice-cold lysis buffer described above, and an aliquot corresponding to 50 μg of total protein was electrophoretically separated using 16.5% Tris-tricine gels. Electrophoresed proteins were then transferred to PVDF membranes (Bio-Rad), washed in dH2O, and blocked for 1 hour at ambient temperature in Tris-buffered saline (TBS; Bio-Rad) containing 5% (w/v) for non-fat dry milk. […] Densitometric analysis was done using the Fluor-S Multimager™ with Quantity One™ software (Bio-Rad). […] Antibodies used for Western blot included antibody 369 (1:1,000), anti-C-terminal APP antibody (1:500; Chemicon, Temecula, Calif.), BAM-10 (1:1,000; Sigma), 6E10 (1:1,000; Signet) or anti-Actin antibody (1:1,500; as an internal reference control; Roche). α-, β- and γ-secretase activities were quantified in cell lysates and mouse brain homogenates using available kits based on secretase-specific peptides conjugated to fluorogenic receptor molecules (R&D Systems, Minneapolis, Minn.). […]

[4] = test system: TNF-α; assay: TNF-α levels in cultured medium of microglial cells; type: cell-based; conditions: EGCG treatment, data not shown
Description: It has been shown that TACE is critically involved in TNF-α maturation associated with pro-inflammatory responses (Moro, M. A. et al., 2003).

[5] = test system: Aβ1-40 and Aβ1-42; assay: Aβ1-40/Aβ1-42 ELISA, Tg2576 mouse-derived primary neuronal cells; type: cell-based; conditions: Tg2576 primary neurons; various doses, 8 h
[6] = test system: ADAM10; assay: Western blot of ADAM10 maturation in primary murine neuronal cultures; type: cell-based; conditions: various doses, 8 h
Experimental: (§2) Cultured cells were lysed in ice-cold lysis buffer described above, and an aliquot corresponding to 50 μg of total protein was electrophoretically separated using 16.5% Tris-tricine gels. Electrophoresed proteins were then transferred to PVDF membranes (Bio-Rad, Richmond, Calif.), washed in ddH2O, and blocked for 1 h at ambient temperature in Tris-buffered saline (TBS; Bio-Rad) containing 5% (w/v) non-fat dry milk. After blocking, membranes were hybridized for 1 h at ambient temperature with various primary antibodies. Membranes were then washed 3 times for 5 min each in ddH2O and incubated for 1 h at ambient temperature with the appropriate HRP-conjugated secondary antibody (1:1,000, Pierce Biotechnology, Inc. Rockford, Ill.). All antibodies were diluted in TBS containing 5% (w/v) of non-fat dry milk. Blots were developed using the luminol reagent (Pierce Biotechnology). Densitometric analysis was done using the Fluor-S MultiImager™ with Quantity One™ software (Bio-Rad). […] Antibodies used for Western blot included: antibody 369 (which recognizes the carboxyl-terminus of APP; 1:1,500), clone 22C11 (against the amino-terminus of APP; 1:1,500), clone 6E10 (against amino acids 1-17 of Aβ; 1:1,500), anti-ADAM9 (1:500), and antibodies against ADAM10 (1:500), ADAM17 (1:500) or actin (1:1,500; as an internal reference control). […]

[7] = test system: ADAM10; assay: Western blot of ADAM10 maturation in parental (non-transfected) N2a cells; type: cell-based, murine; conditions: various doses, 8 h
Experimental: Cultured cells were lysed in ice-cold lysis buffer described above, and an aliquot corresponding to 50 μg of total protein was electrophoretically separated using 16.5% Tris-tricine gels. Electrophoresed proteins were then transferred to PVDF membranes (Bio-Rad, Richmond, Calif.), washed in ddH2O, and blocked for 1 h at ambient temperature in Tris-buffered saline (TBS; Bio-Rad) containing 5% (w/v) non-fat dry milk. After blocking, membranes were hybridized for 1 h at ambient temperature with various primary antibodies. Membranes were then washed 3 times for 5 min each in ddH2O and incubated for 1 h at ambient temperature with the appropriate HRP-conjugated secondary antibody (1:1,000, Pierce Biotechnology, Inc. Rockford, Ill.). All antibodies were diluted in TBS containing 5% (w/v) of non-fat dry milk. Blots were developed using the luminol reagent (Pierce Biotechnology). Densitometric analysis was done using the Fluor-S MultiImager™ with Quantity One™ software (Bio-Rad). […] Antibodies used for Western blot included: antibody 369 (which recognizes the carboxyl-terminus of APP; 1:1,500), clone 22C11 (against the amino-terminus of APP; 1:1,500), clone 6E10 (against amino acids 1-17 of Aβ; 1:1,500), anti-ADAM9 (1:500), and antibodies against ADAM10 (1:500), ADAM17 (1:500) or actin (1:1,500; as an internal reference control).

[8] = test system: Aβ generation; assay: Aβ ELISA, transgenic APPsw mouse-derived primary neuronal cells (Example 1); type: cell-based; conditions: 20 μM, FIG. 1B
Experimental: Aβ1-40 and 1-42 peptides were analyzed in the conditioned media from SweAPP N2a cells (FIGS. 1A, 1C, 1D) and transgenic APPsw mouse-derived primary neuronal cells (FIG. 1B) by ELISA (n=3 for each condition).
TAPI-1, β and γ-secretase inhibitors were obtained from Calbiochem (San Diego, Calif.). Green tea extract (75% polyphenols) was obtained from the Vitamin Shoppe™ (North Bergen, N.J.).
Cultured cells were lysed in ice-cold-lysis buffer (20 mM Tris, pH 7.5, 150 mM NaCl, 1 mM EDTA, 1 mM EGTA, 1% v/v Triton X-100, 2.5 mM sodium pyropgosphate, 1 mM β-glycerolphosphate, 1 mM Na3VO4, 1 μg/mL leupeptin, 1 mM PMSF) as previously described (Tan et al., 2002). Mouse brains were isolated under sterile conditions on ice and placed in ice-cold lysis buffer. […] Total Aβ1-42 species were detected by acid extraction of brain homogenates in 5 M guanidine buffer (ret), followed by a 1:10 dilution in lysis buffer. Soluble Aβ1-42 was directly detected in cultured cell lysates or brain homogenates prepared with lysis buffer described above by a 1:4 or 1:10 dilution, respectively. Aβ1-42 was quantified in these samples using the Aβ1-42 ELISA kit (BioSource, Camarillo, Calif.) in accordance with the manufacturer's instructions, except that standards included a 0.5 M guanidine buffer. […]

[9] = test system: ADAM10; assay: Western blot of ADAM10 maturation in primary murine microglial cultures; type: cell-based; conditions: various doses, 8 h
Experimental: as §2

Compound: O=C(O[C@@H]1Cc2c(O)cc(O)cc2O[C@@H]1c1cc(O)c(O)c(O)c1)c1cc(O)c(O)c(O)c1 [EGCG, (−)-epigallocatechin-3-gallate]
- ADAM9 expression [1]: no significant effects
- ADAM17 expression [2]: no significant effects
- elevation of α-secretase cleavage activity in brain [3]: 32%
- reduction of cerebral soluble Aβ levels [3]: 39%
- α-secretase cleavage activity in brain (mean ± s.e.m.) [3]: 890.29±104.41 fluorescence units/mg of total protein
- TNF-α levels in cultured medium [4]: no associated elevation
- Aβ1-40 levels [5]: dose-dependent reductions
- Aβ1-42 levels [5]: dose-dependent reductions
- mature ADAM10 [6]: dose-dependent increases
- ADAM10 maturation [7]: dose-dependently increased
- reduction of Aβ1-42 generation over control (PBS) [8]: 40%
- mature ADAM10 [9]: dose-dependent increases
